According to patent US6358885B1, “Substituted phenylheterocyclic herbicides” (Mississippi State University, priority 1992, dated 2002):

Key:
lambsquarters = assay: Test B preemergence/postemergence greenhouse plant response rating 0 to 10; format: in vivo, Chenopodium album; conditions: 0 to 10 scale
Procedure, shortened: (§1)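 Test chemicals were sprayed onto freshly planted seed and, concurrently, onto young plants between the one and four leaf stage. After a twelve- to sixteen-day greenhouse period, each species was visually compared with untreated controls.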

chickweed = assay: Test C preemergence/postemergence greenhouse plant response rating 0 to 100; format: in vivo, Stellaria media; conditions: POSTEMERGENCE
Procedure, shortened: (§2)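 Compounds in non-phytotoxic solvent applied preemergence to sandy loam one day after planting, postemergence at the 1–4 leaf stage, or to ~2.5 cm floodwater over silt loam.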

morningglory [1] = assay: as above; format: in vivo, Ipomoea hederacea; conditions: POSTEMERGENCE
Procedure, shortened: as §2

rape = assay: as above; format: in vivo, Brassica napus; conditions: POSTEMERGENCE
Procedure, shortened: as §2

barley [2] = assay: Test B preemergence/postemergence greenhouse plant response rating 0 to 10; format: in vivo, Hordeum vulgare; conditions: for Plant response rating, Barley: 0 to 10 scale
Procedure, shortened: as §1

bedstraw = assay: as above; format: in vivo, Galium aparine; conditions: POSTEMERGENCE
Procedure, shortened: as §1

soybean [3] = assay: Test C preemergence/postemergence greenhouse plant response rating 0 to 100; format: in vivo, Glycine max; conditions: POSTEMERGENCE
Procedure, shortened: as §2

barley [4] = assay: as above; format: in vivo, Hordeum vulgare; conditions: POSTEMERGENCE
Procedure, shortened: as §2

velvetleaf = assay: Test B preemergence/postemergence greenhouse plant response rating 0 to 10; format: in vivo, Abutilon theophrasti; conditions: 0 to 10 scale
Procedure, shortened: as §1

blackgrass = assay: Test C preemergence/postemergence greenhouse plant response rating 0 to 100; format: in vivo, Alopecurus myosuroides; conditions: POSTEMERGENCE
Procedure, shortened: as §2

rice = assay: Test C flood test plant response rating 0 to 100; format: in vivo, Oryza sativa
Procedure, shortened: as §2

cheatgrass = assay: Test B preemergence/postemergence greenhouse plant response rating 0 to 10; format: in vivo, Bromus secalinus; conditions: for Plant response rating, Cheatgrass: 0 to 10 scale
Procedure, shortened: as §1

soybean [5] = assay: as above; format: in vivo, Glycine max; conditions: 0 to 10 scale
Procedure, shortened: as §1

giant foxtail [6] = assay: as above; format: in vivo, Setaria faberii; conditions: 0 to 10 scale
Procedure, shortened: as §1

cocklebur = assay: as above; format: in vivo, Xanthium pensylvanicum; conditions: for Plant response rating, Cocklebur: 0 to 10 scale
Procedure, shortened: as §1

morningglory [7] = assay: as above; format: in vivo, Ipomoea hederacea; conditions: 0 to 10 scale
Procedure, shortened: as §1

sorghum = assay: Test C preemergence/postemergence greenhouse plant response rating 0 to 100; format: in vivo, Sorghum bicolor; conditions: POSTEMERGENCE
Procedure, shortened: as §2

giant foxtail [8] = assay: as above; format: in vivo, Setaria faberii; conditions: POSTEMERGENCE
Procedure, shortened: as §2

What does the source list for `CC(C)N1C(=O)COc2cc(F)c(-c3nn4c(c3Cl)CCCC4)cc21` [Compound 31]?
Plant response rating, Lambsquarter (lambsquarters; POSTEMERGENCE, Rate 10 g/ha): 10; Plant response rating, Lambsquarter (lambsquarters; POSTEMERGENCE, Rate 50 g/ha): 10; Plant response rating, Lambsquarter (lambsquarters; PREEMERGENCE, Rate 50 g/ha): 10; Plant response rating, Chickweed (chickweed; 62 g/ha, 0 to 100 scale): 90; Plant response rating (0 to 100), Chickweed (chickweed; Rate 4 g/ha): 20; Plant response rating (0 to 100), Chickweed (chickweed; Rate 16 g/ha): 80; Plant response rating, Morningglory (morningglory [1]; 62 g/ha, 0 to 100 scale): 100; Plant response rating (0 to 100), Morningglory (morningglory [1]; Rate 1 g/ha): 70; Plant response rating (0 to 100), Morningglory (morningglory [1]; Rate 4 g/ha): 100; Plant response rating (0 to 100), Morningglory (morningglory [1]; Rate 16 g/ha): 100; Plant response rating, Rape (rape; 62 g/ha, 0 to 100 scale): 100; Plant response rating (0 to 100), Rape (rape; Rate 1 g/ha): 30; Plant response rating (0 to 100), Rape (rape; Rate 4 g/ha): 60; Plant response rating (0 to 100), Rape (rape; Rate 16 g/ha): 95; Plant response rating, Barley (barley [2]; POSTEMERGENCE, Rate 10 g/ha): 5; Plant response rating (0 to 10 scale), Barley (barley [2]; POSTEMERGENCE, Rate 50 g/ha): 5; Plant response rating, Barley (barley [2]; PREEMERGENCE, Rate 10 g/ha): 0; Plant response rating, Barley (barley [2]; PREEMERGENCE, Rate 50 g/ha): 0; Plant response rating, Bedstraw (bedstraw; Rate 10 g/ha, 0 to 10 scale): 10; Plant response rating (0 to 10 scale), Bedstraw (bedstraw; Rate 50 g/ha): 10; Plant response rating, Soybean (soybean [3]; 62 g/ha, 0 to 100 scale): 80; Plant response rating (0 to 100), Soybean (soybean [3]; Rate 1 g/ha): 30; Plant response rating (0 to 100), Soybean (soybean [3]; Rate 4 g/ha): 40; Plant response rating (0 to 100), Soybean (soybean [3]; Rate 16 g/ha): 60; Plant response rating Barley Igri (barley [4]; 62 g/ha, 0 to 100 scale): 50; Plant response rating (0 to 100), Barley Igri (barley [4]; Rate 1 g/ha): 20; Plant response rating (0 to 100), Barley Igri (barley [4]; Rate 4 g/ha): 30; Plant response rating (0 to 100), Barley Igri (barley [4]; Rate 16 g/ha): 40; Plant response rating, Velvetleaf (velvetleaf; POSTEMERGENCE, Rate 10 g/ha): 10; Plant response rating, Velvetleaf (velvetleaf; POSTEMERGENCE, Rate 50 g/ha): 10; Plant response rating, Velvetleaf (velvetleaf; PREEMERGENCE, Rate 50 g/ha): 9; Plant response rating, Blackgrass (blackgrass; 62 g/ha, 0 to 100 scale): 40; Plant response rating (0 to 100), Blackgrass (blackgrass; Rate 1 g/ha): 10; Plant response rating (0 to 100), Blackgrass (blackgrass; Rate 4 g/ha): 20; Plant response rating (0 to 100), Blackgrass (blackgrass; Rate 16 g/ha): 30; Plant response rating (0 to 100), Rice Japonica (rice; POSTEMERGENCE section, flood test, Rate 1 g/ha): 0; Plant response rating (0 to 100), Rice Japonica (rice; POSTEMERGENCE section, flood test, Rate 4 g/ha): 0; Plant response rating (0 to 100), Rice Japonica (rice; Rate 16 g/ha, under POSTEMERGENCE head (flood test species)): 35; Plant response rating Rice Japonica (rice; flood test species listed under POSTEMERGENCE, 62 g/ha, 0 to 100 scale): 50; Plant response rating, Cheatgrass (cheatgrass; POSTEMERGENCE, Rate 10 g/ha): 5; Plant response rating (0 to 10 scale), Cheatgrass (cheatgrass; POSTEMERGENCE, Rate 50 g/ha): 6; Plant response rating, Cheatgrass (cheatgrass; PREEMERGENCE, Rate 10 g/ha): 2; Plant response rating, Cheatgrass (cheatgrass; PREEMERGENCE, Rate 50 g/ha): 6; Plant response rating, Soybean (soybean [5]; POSTEMERGENCE, Rate 10 g/ha): 7; Plant response rating, Soybean (soybean [5]; POSTEMERGENCE, Rate 50 g/ha): 7; Plant response rating, Soybean (soybean [5]; PREEMERGENCE, Rate 50 g/ha): 0; Plant response rating, Giant foxtail (giant foxtail [6]; POSTEMERGENCE, Rate 10 g/ha): 5; Plant response rating, Giant foxtail (giant foxtail [6]; POSTEMERGENCE, Rate 50 g/ha): 5; Plant response rating, Giant foxtail (giant foxtail [6]; PREEMERGENCE, Rate 10 g/ha): 0; Plant response rating, Giant foxtail (giant foxtail [6]; PREEMERGENCE, Rate 50 g/ha): 3; Plant response rating, Cocklebur (cocklebur; POSTEMERGENCE, Rate 10 g/ha): 9; Plant response rating (0 to 10 scale), Cocklebur (cocklebur; POSTEMERGENCE, Rate 50 g/ha): 9; Plant response rating, Cocklebur (cocklebur; PREEMERGENCE, Rate 10 g/ha): 0; Plant response rating, Cocklebur (cocklebur; PREEMERGENCE, Rate 50 g/ha): 3; Plant response rating, Morningglory (morningglory [7]; POSTEMERGENCE, Rate 10 g/ha): 9; Plant response rating, Morningglory (morningglory [7]; POSTEMERGENCE, Rate 50 g/ha): 10; Plant response rating, Morningglory (morningglory [7]; PREEMERGENCE, Rate 50 g/ha): 5; Plant response rating, Sorghum (sorghum; 62 g/ha, 0 to 100 scale): 50; Plant response rating (0 to 100), Sorghum (sorghum; Rate 1 g/ha): 20; Plant response rating (0 to 100), Sorghum (sorghum; Rate 4 g/ha): 40; Plant response rating (0 to 100), Sorghum (sorghum; Rate 16 g/ha): 50; Plant response rating, Giant foxtail (giant foxtail [8]; 62 g/ha, 0 to 100 scale): 40; Plant response rating (0 to 100), Giant foxtail (giant foxtail [8]; Rate 1 g/ha): 10; Plant response rating (0 to 100), Giant foxtail (giant foxtail [8]; Rate 4 g/ha): 20; Plant response rating (0 to 100), Giant foxtail (giant foxtail [8]; Rate 16 g/ha): 30
